For 24 compounds, IC50 results are on record in ChEMBL document CHEMBL5550145, “Synthesis and cytotoxicity evaluation of d- and l-sugar-containing mono- and bidesmosidic ursane-type saponins” (Bioorg Med Chem, 2024).

One data set relates to A549. Nature of the data set: Cytotoxicity against human A549 cells assessed as inhibition of cell growth measured after 48 hrs by Hoechst 33258 staining based fluorescence assay. It counts as functional. The settings on record: A549, 48 h.
The test system of a further data set is DLD-1. Nature of the data set: Cytotoxicity against human DLD-1 cells assessed as inhibition of cell growth measured after 48 hrs by Hoechst 33258 staining based fluorescence assay. The format is functional. The settings on record: DLD-1, 48 h.
Data set [1] is described as follows: Cytotoxicity against human WS1 cells assessed as inhibition of cell growth measured after 48 hrs by Hoechst 33258 staining based fluorescence assay. It counts as toxicity.

One may read the IC50 as the concentration that gives 50% inhibition.

`C[C@H]1[C@H](C)CC[C@]2(CO[C@H]3OC[C@H](O)[C@@H](O)[C@H]3O)CC[C@]3(C)C(=CC[C@@H]4[C@@]5(C)CC[C@H](O[C@@H]6OC[C@H](O)[C@@H](O)[C@H]6O)C(C)(C)[C@@H]5CC[C@]43C)[C@H]12`: the IC50 with A549 was determined as 15 µM; in the data set on DLD-1, 57 µM. Moreover, in data set [1], the IC50 at 48 h was 60 µM.
For `C=C(C)[C@@H]1CC[C@]2(CO[C@@H]3O[C@@H](C)[C@H](O)[C@@H](O)[C@H]3O)CC[C@]3(C)[C@H](CC[C@@H]4[C@@]5(C)CC[C@H](O[C@@H]6O[C@@H](C)[C@H](O)[C@@H](O)[C@H]6O)C(C)(C)[C@@H]5CC[C@]43C)[C@@H]12`, the IC50 with A549 stood at 1.07 µM. Moreover, the IC50 at 48 h in data set [1] is 1.42 µM.
Consider `C[C@H]1[C@H](C)CC[C@]2(C(=O)O)CC[C@]3(C)C(=CC[C@@H]4[C@@]5(C)CC[C@H](O[C@@H]6O[C@H](C)[C@H](O)[C@H](O)[C@H]6O)C(C)(C)[C@@H]5CC[C@]43C)[C@H]12`, for which the IC50 with A549 came to 7 µM; in the data set on DLD-1 it was 15 µM. Besides, the IC50 at 48 h in data set [1] came out at 13.1 µM.
In the case of `COc1cc([C@@H]2c3cc4c(cc3[C@@H](O[C@@H]3O[C@@H]5CO[C@@H](C)O[C@H]5[C@H](O)[C@H]3O)[C@H]3COC(=O)[C@H]23)OCO4)cc(OC)c1O` [ETOPOSIDE], the figures for the IC50 with A549 and in the data set on DLD-1 were 1.9 µM and 5.1 µM, respectively. The IC50 at 48 h in data set [1] was > 50 µM.
The like results for `C[C@H]1[C@H](C)CC[C@]2(CO)CC[C@]3(C)C(=CC[C@@H]4[C@@]5(C)CC[C@H](O)C(C)(C)[C@@H]5CC[C@]43C)[C@H]12` [UVAOL] were, in that order, > 200 µM, > 200 µM and > 200 µM.
The like results for `C[C@H]1[C@H](C)CC[C@]2(CO[C@@H]3O[C@H](C)[C@H](O)[C@H](O)[C@H]3O)CC[C@]3(C)C(=CC[C@@H]4[C@@]5(C)CC[C@H](O[C@@H]6O[C@H](C)[C@H](O)[C@H](O)[C@H]6O)C(C)(C)[C@@H]5CC[C@]43C)[C@H]12` were, in that order, 8.9 µM, 12 µM and 16 µM.
The like results for `C[C@H]1[C@H](C)CC[C@]2(C(=O)O)CC[C@]3(C)C(=CC[C@@H]4[C@@]5(C)CC[C@H](O[C@H]6OC[C@H](O)[C@@H](O)[C@@H]6O)C(C)(C)[C@@H]5CC[C@]43C)[C@H]12` were, in that order, 35 µM, 36 µM and 30 µM.
With `C[C@H]1[C@H](C)CC[C@]2(C(=O)O)CC[C@]3(C)C(=CC[C@@H]4[C@@]5(C)CC[C@H](O)C(C)(C)[C@@H]5CC[C@]43C)[C@H]12` [URSOLIC ACID], the IC50 in the data set on A549 and in the data set with DLD-1 was 16 µM throughout. Besides, the IC50 at 48 h in data set [1] was 13.1 µM.
With `C[C@H]1[C@H](C)CC[C@]2(CO[C@H]3OC[C@@H](O)[C@H](O)[C@H]3O)CC[C@]3(C)C(=CC[C@@H]4[C@@]5(C)CC[C@H](O[C@@H]6OC[C@@H](O)[C@H](O)[C@H]6O)C(C)(C)[C@@H]5CC[C@]43C)[C@H]12`, the IC50 in the data set with A549 turned out to be 15 µM; with DLD-1 it was 14.9 µM. Moreover, in data set [1], the IC50 at 48 h came to 20 µM.
The like results for `C[C@H]1[C@H](C)CC[C@]2(CO[C@@H]3O[C@@H](C)[C@H](O)[C@@H](O)[C@H]3O)CC[C@]3(C)C(=CC[C@@H]4[C@@]5(C)CC[C@H](O[C@@H]6O[C@@H](C)[C@H](O)[C@@H](O)[C@H]6O)C(C)(C)[C@@H]5CC[C@]43C)[C@H]12` were, in that order, 4.5 µM, 11 µM and 14 µM.
The like results for `C[C@H]1[C@H](C)CC[C@]2(C(=O)O)CC[C@]3(C)C(=CC[C@@H]4[C@@]5(C)CC[C@H](O[C@H]6OC[C@@H](O)[C@H](O)[C@@H]6O)C(C)(C)[C@@H]5CC[C@]43C)[C@H]12` were, in that order, 9 µM, 6.4 µM and 4.6 µM.
For `C[C@H]1[C@H](C)CC[C@]2(CO[C@@H]3OC[C@@H](O)[C@@H](O)[C@@H]3O)CC[C@]3(C)C(=CC[C@@H]4[C@@]5(C)CC[C@H](O[C@H]6OC[C@@H](O)[C@@H](O)[C@@H]6O)C(C)(C)[C@@H]5CC[C@]43C)[C@H]12`, the IC50 came out at 10 µM in the data set with A549 and 16 µM in the data set on DLD-1. Besides, the IC50 at 48 h in data set [1] turned out to be 20 µM.
The like results for `C[C@H]1[C@H](C)CC[C@]2(CO[C@H]3O[C@@H](C)[C@@H](O)[C@@H](O)[C@@H]3O)CC[C@]3(C)C(=CC[C@@H]4[C@@]5(C)CC[C@H](O[C@H]6O[C@@H](C)[C@@H](O)[C@@H](O)[C@@H]6O)C(C)(C)[C@@H]5CC[C@]43C)[C@H]12` were, in that order, 104 µM, 48 µM and 62 µM.
The like results for `C[C@H]1[C@H](C)CC[C@]2(CO[C@H]3OC[C@H](O)[C@H](O)[C@H]3O)CC[C@]3(C)C(=CC[C@@H]4[C@@]5(C)CC[C@H](O[C@@H]6OC[C@H](O)[C@H](O)[C@H]6O)C(C)(C)[C@@H]5CC[C@]43C)[C@H]12` were, in that order, 8.9 µM, 31 µM and 37 µM.
On to `C[C@H]1[C@H](C)CC[C@]2(C(=O)O)CC[C@]3(C)C(=CC[C@@H]4[C@@]5(C)CC[C@H](O[C@@H]6OC[C@H](O)[C@@H](O)[C@H]6O)C(C)(C)[C@@H]5CC[C@]43C)[C@H]12`, for which the results for the IC50 with A549 and in the data set on DLD-1 were 39 µM and 29 µM, respectively. Moreover, in data set [1], the IC50 at 48 h worked out at 20 µM.
The like results for `C[C@H]1[C@H](C)CC[C@]2(C(=O)O)CC[C@]3(C)C(=CC[C@@H]4[C@@]5(C)CC[C@H](O[C@@H]6OC[C@@H](O)[C@H](O)[C@H]6O)C(C)(C)[C@@H]5CC[C@]43C)[C@H]12` were, in that order, 7.4 µM, 7 µM and 9 µM.
The like results for `C[C@H]1[C@H](C)CC[C@]2(C(=O)O)CC[C@]3(C)C(=CC[C@@H]4[C@@]5(C)CC[C@H](O[C@@H]6OC[C@H](O)[C@H](O)[C@H]6O)C(C)(C)[C@@H]5CC[C@]43C)[C@H]12` were, in that order, 3.5 µM, 3.8 µM and 5.9 µM.
With `C[C@H]1[C@H](C)CC[C@]2(C(=O)O)CC[C@]3(C)C(=CC[C@@H]4[C@@]5(C)CC[C@H](O[C@H]6O[C@H](C)[C@@H](O)[C@H](O)[C@@H]6O)C(C)(C)[C@@H]5CC[C@]43C)[C@H]12`, the figures for the IC50 in the data set with A549 and in the data set with DLD-1 were 65 µM and 61 µM, respectively. The IC50 at 48 h in data set [1] is 77 µM.
The like results for `C[C@H]1[C@H](C)CC[C@]2(C(=O)O)CC[C@]3(C)C(=CC[C@@H]4[C@@]5(C)CC[C@H](O[C@@H]6O[C@@H](C)[C@H](O)[C@@H](O)[C@H]6O)C(C)(C)[C@@H]5CC[C@]43C)[C@H]12` were, in that order, 14 µM, 11 µM and 8.5 µM.
The like results for `C[C@H]1[C@H](C)CC[C@]2(C(=O)O)CC[C@]3(C)C(=CC[C@@H]4[C@@]5(C)CC[C@H](O[C@H]6OC[C@@H](O)[C@@H](O)[C@@H]6O)C(C)(C)[C@@H]5CC[C@]43C)[C@H]12` were, in that order, 9 µM, 7.9 µM and 10 µM.
The like results for `C[C@H]1[C@H](C)CC[C@]2(CO[C@@H]3OC[C@H](O)[C@@H](O)[C@@H]3O)CC[C@]3(C)C(=CC[C@@H]4[C@@]5(C)CC[C@H](O[C@H]6OC[C@H](O)[C@@H](O)[C@@H]6O)C(C)(C)[C@@H]5CC[C@]43C)[C@H]12` were, in that order, 9.8 µM, > 200 µM and > 200 µM.
Take `C[C@H]1[C@H](C)CC[C@]2(CO[C@H]3O[C@H](C)[C@@H](O)[C@H](O)[C@@H]3O)CC[C@]3(C)C(=CC[C@@H]4[C@@]5(C)CC[C@H](O[C@H]6O[C@H](C)[C@@H](O)[C@H](O)[C@@H]6O)C(C)(C)[C@@H]5CC[C@]43C)[C@H]12`: the figures for the IC50 in the data set with A549 and in the data set on DLD-1 were 104 µM and 109 µM, respectively. Besides, the IC50 at 48 h in data set [1] was > 200 µM.
The like results for `C[C@H]1[C@H](C)CC[C@]2(C(=O)O)CC[C@]3(C)C(=CC[C@@H]4[C@@]5(C)CC[C@H](O[C@H]6O[C@@H](C)[C@@H](O)[C@@H](O)[C@@H]6O)C(C)(C)[C@@H]5CC[C@]43C)[C@H]12` were, in that order, 3.7 µM, 15 µM and 7.2 µM.
The like results for `C[C@H]1[C@H](C)CC[C@]2(CO[C@@H]3OC[C@@H](O)[C@H](O)[C@@H]3O)CC[C@]3(C)C(=CC[C@@H]4[C@@]5(C)CC[C@H](O[C@H]6OC[C@@H](O)[C@H](O)[C@@H]6O)C(C)(C)[C@@H]5CC[C@]43C)[C@H]12` were, in that order, 34 µM, 38 µM and 10 µM.
